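Grown in 96-well plates, cells were treated for 48 hours with each compound at five concentrations. Insufficient inhibition: endpoint recorded as highest concentration tested. The concentration for 50% growth inhibition is given as GI50. Definition used: TGI = concentration required for complete inhibition of growth.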
Key:
Assay in all cases: DTP human tumour cell line panel, 48 h; in the data active = GI50 below about 0.43 µM; inactive = the rest
PC-3 prostate = system: PC-3 prostate
SK-MEL-5 melanoma = system: SK-MEL-5 melanoma
HCT-15 colon = system: HCT-15 colon
UACC-62 melanoma = system: UACC-62 melanoma
OVCAR-5 ovarian = system: OVCAR-5 ovarian
HCC-2998 colon = system: HCC-2998 colon
OVCAR-3 ovarian = system: OVCAR-3 ovarian
NCI-H460 lung = system: NCI-H460 lung
SF-539 CNS = system: SF-539 CNS
BT-549 breast = system: BT-549 breast
SNB-75 CNS = system: SNB-75 CNS
SK-MEL-2 melanoma = system: SK-MEL-2 melanoma
NCI-H226 lung = system: NCI-H226 lung
SR leukemia = system: SR leukemia
SK-OV-3 ovarian = system: SK-OV-3 ovarian
COLO 205 colon = system: COLO 205 colon
MOLT-4 leukemia = system: MOLT-4 leukemia
IGROV1 ovarian = system: IGROV1 ovarian
LOX IMVI melanoma = system: LOX IMVI melanoma
MDA-MB-468 breast = system: MDA-MB-468 breast
CAKI-1 renal = system: CAKI-1 renal
TK-10 renal = system: TK-10 renal
NCI-H522 lung = system: NCI-H522 lung
U251 CNS = system: U251 CNS
A498 renal = system: A498 renal
SF-268 CNS = system: SF-268 CNS
KM12 colon = system: KM12 colon
CCRF-CEM leukemia = system: CCRF-CEM leukemia
HOP-62 NSCLC = system: HOP-62 NSCLC
RXF 393 renal = system: RXF 393 renal
MDA-MB-435 = system: MDA-MB-435
M14 melanoma = system: M14 melanoma
SNB-19 CNS = system: SNB-19 CNS
K-562 leukemia = system: K-562 leukemia
UACC-257 melanoma = system: UACC-257 melanoma
OVCAR-4 ovarian = system: OVCAR-4 ovarian
MCF7 breast = system: MCF7 breast
A549 NSCLC = system: A549 NSCLC
RPMI-8226 leukemia = system: RPMI-8226 leukemia
HS 578T breast = system: HS 578T breast
UO-31 renal = system: UO-31 renal
HCT-116 colon = system: HCT-116 colon
SW-620 colon = system: SW-620 colon
HT29 colon = system: HT29 colon
HL-60(TB) leukemia = system: HL-60(TB) leukemia
SF-295 CNS = system: SF-295 CNS
SN12C renal = system: SN12C renal
OVCAR-8 ovarian = system: OVCAR-8 ovarian
786-0 renal = system: 786-0 renal
NCI-H23 lung = system: NCI-H23 lung

O=C1NC(=NC23CC4CC(CC(C4)C2)C3)N/C1=C\c1ccc2ncsc2c1
8.04 µM: TGI (UO-31 renal)
active: GI50 (SR leukemia) 170 nM | GI50 (NCI-H522 lung) 168 nM | GI50 (HCT-116 colon) 323 nM
4.21 µM: TGI (RXF 393 renal)
7.36 µM: TGI (NCI-H23 lung)
1240 nM: TGI (SR leukemia)
5.96 µM: TGI (CCRF-CEM leukemia)
3.06 µM: TGI (SF-539 CNS)
7 µM: TGI (BT-549 breast)
6.73 µM: TGI (OVCAR-3 ovarian)
5.56 µM: TGI (SK-MEL-5 melanoma)
4.29 µM: TGI (SNB-75 CNS)
6.58 µM: TGI (SF-268 CNS)
7.79 µM: TGI (A498 renal)
8.13 µM: TGI (HS 578T breast)
5.14 µM: TGI (RPMI-8226 leukemia)
> 100 µM: TGI (PC-3 prostate) | TGI (HCT-15 colon) | TGI (UACC-62 melanoma) | TGI (OVCAR-5 ovarian) | TGI (HCC-2998 colon) | TGI (NCI-H460 lung) | TGI (NCI-H226 lung) | TGI (SK-OV-3 ovarian) | TGI (MOLT-4 leukemia) | TGI (IGROV1 ovarian) | TGI (LOX IMVI melanoma) | TGI (CAKI-1 renal) | TGI (TK-10 renal) | TGI (U251 CNS) | TGI (KM12 colon) | TGI (HOP-62 NSCLC) | TGI (MDA-MB-435) | TGI (M14 melanoma) | TGI (SNB-19 CNS) | TGI (K-562 leukemia) | TGI (UACC-257 melanoma) | TGI (OVCAR-4 ovarian) | TGI (MCF7 breast) | TGI (A549 NSCLC) | TGI (HCT-116 colon) | TGI (SW-620 colon) | TGI (HT29 colon) | TGI (SF-295 CNS) | TGI (SN12C renal) | TGI (OVCAR-8 ovarian) | TGI (786-0 renal)
inactive: GI50 (PC-3 prostate) 3.29 µM | GI50 (SK-MEL-5 melanoma) 899 nM | GI50 (HCT-15 colon) 663 nM | GI50 (UACC-62 melanoma) 3.11 µM | GI50 (OVCAR-5 ovarian) 2450 nM | GI50 (HCC-2998 colon) 3.32 µM | GI50 (OVCAR-3 ovarian) 1740 nM | GI50 (NCI-H460 lung) 538 nM | GI50 (SF-539 CNS) 432 nM | GI50 (BT-549 breast) 1630 nM | GI50 (SNB-75 CNS) 1620 nM | GI50 (SK-MEL-2 melanoma) 933 nM | GI50 (NCI-H226 lung) 1430 nM | GI50 (SK-OV-3 ovarian) 5.47 µM | GI50 (COLO 205 colon) 1800 nM | GI50 (MOLT-4 leukemia) 1650 nM | GI50 (IGROV1 ovarian) 2580 nM | GI50 (LOX IMVI melanoma) 928 nM | GI50 (MDA-MB-468 breast) 1240 nM | GI50 (CAKI-1 renal) 1330 nM | GI50 (TK-10 renal) 2870 nM | GI50 (U251 CNS) 1790 nM | GI50 (A498 renal) 2700 nM | GI50 (SF-268 CNS) 2230 nM | GI50 (KM12 colon) 1800 nM | GI50 (CCRF-CEM leukemia) 1120 nM | GI50 (HOP-62 NSCLC) 3.35 µM | GI50 (RXF 393 renal) 2010 nM | GI50 (MDA-MB-435) 3.11 µM | GI50 (M14 melanoma) 2420 nM | GI50 (SNB-19 CNS) 3.58 µM | GI50 (K-562 leukemia) 762 nM | GI50 (UACC-257 melanoma) 4.11 µM | GI50 (OVCAR-4 ovarian) 3.2 µM | GI50 (MCF7 breast) 1370 nM | GI50 (A549 NSCLC) 1190 nM | GI50 (RPMI-8226 leukemia) 1200 nM | GI50 (HS 578T breast) 2730 nM | GI50 (UO-31 renal) 2960 nM | GI50 (SW-620 colon) 1810 nM | GI50 (HT29 colon) 3.09 µM | GI50 (HL-60(TB) leukemia) 1630 nM | GI50 (SF-295 CNS) 3.4 µM | GI50 (SN12C renal) 842 nM | GI50 (OVCAR-8 ovarian) 1680 nM | GI50 (786-0 renal) 3.05 µM | GI50 (NCI-H23 lung) 1580 nM
3.67 µM: TGI (MDA-MB-468 breast)
3.13 µM: TGI (SK-MEL-2 melanoma)
4.79 µM: TGI (NCI-H522 lung)
6.77 µM: TGI (COLO 205 colon)
5.25 µM: TGI (HL-60(TB) leukemia)
